Measurements as given in paper PMC10384011, “m-Terphenylamines, Acting as Selective COX-1 Inhibitors, Block Microglia Inflammatory Response and Exert Neuroprotective Activity” (Molecules, 2023).

What was measured:
BV2 microglia cells [1] = assay: ROS production (H2DCFDA) in LPS-treated BV2 microglia; type: cell-based; conditions: LPS 1 μg/mL, 24 h
Source text: Activation of toll-like receptors (TLRs), particularly the TLR4 subtype, is closely associated with the production of reactive oxygen and nitrogen species that contribute to neuronal death in the CNS. In this connection, NADPH oxidase enzymes are the main ones responsible for ROS production induced by NF-κB nuclear translocation. For this reason, we decided to assess the ROS levels of BV2 microglia cells treated with LPS and the effect of our compounds under this toxicity protocol. To this end, the compounds, at different concentrations (3 μM of 3a, 3b, and 3d and 10 μM of 3c) were incubated with 1 μg/mL LPS for 24 h. After this period, ROS production was measured with the fluorescent probe H2DCFDA. Treatment with LPS increased by 1.75-fold the amount of ROS compared with control cells.
(§1) Cultures were seeded into flasks containing supplemented medium and kept at 37 °C in a humidified atmosphere of 5% CO2 and 95% air. For assays, BV-2 cells were subcultured in 48-well plates at a seeding density of 1 × 10^5 cells per well. Cells were treated with LPS (Sigma-Aldrich, Madrid, Spain) for 24 or 48 h before confluence in RPMI with 1% FBS.
To measure cellular ROS, we used the molecular probe 2′,7′-dichlorodihydrofluorescein diacetate (H2DCFDA). Glial cells were loaded with 5 µM H2DCFDA as it was previously described (Parada et al., 2015). Fluorescence was measured in a fluorescence microplate reader (FLUOstar Galaxy; BMG Labtech, Offenburg, Germany). Wavelengths of excitation and emission were 485 and 520 nm, respectively. The relative pixel intensity was measured in identical regions with (ImageJ 1.52a software, National Institutes of Health, Bethesda, MD, USA).

BV2 microglia cells [2] = assay: LPS-induced activated (ramified) phenotype of BV2 microglia; type: cell-based; conditions: LPS 1 μg/mL, 24 h
Source text: Next, we set out to study the changes in microglia phenotype under this toxicity protocol. As mentioned above, microglia are comprised of variable morphology cells that are always adapting to the surrounding media and, therefore, to physiopathological conditions. Indeed, morphological appearance is well correlated with the different states of microglia activation. The microglia-activated phenotype (M1), which is the classical state of this kind of cell in response to proinflammatory insults such as LPS, is linked with the overexpression of a plethora of cytokines and inflammatory markers, namely TNF, IL-1β, IL-6, MCP-1 or CD11b. All of these markers are commonly associated with morphological changes towards an amoeboid phenotype in primary cultures or in in vivo studies. Nevertheless, it has been recently described that BV2 microglia, as well as macrophages, turn from rounded to spindle-shaped or multipolar phenotypes in response to various M1 proinflammatory stimuli such as LPS/IFNγ or spinal cord injury conditioned media. In this context, we assessed the ability of our compounds to prevent the morphological changes induced by LPS by analyzing the percentage of BV2 ramified cells (multipolar or spindle) over the total BV2 per field following cell incubation with our compounds and 1 μg/mL LPS for 24 h.
as §1

ovine COX-1 = target: T1, ovine COX-1 (Ovis aries, UniProt P05979); assay: Cyclooxygenase colorimetric inhibitor screening assay, COX-1; type: biochemical; conditions: for inhibition at 50 µM: ovine COX-1, 50 µM, % Inhibition at 50 µM (converted); for inhibition at 50 µM / IC50: read-out: oCOX-1; for IC50: ovine COX-1, colorimetric kit, triplicate;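 for all read-outs here: COX peroxidase activity read colorimetrically as oxidized TMPD at 590 nm, arachidonic acid as substrate, inhibitors tested at 0.001–50 µM from DMSO stocks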
T1 construct: purchased Cayman Chemicals 701050
T1 sequence (P05979 25-600): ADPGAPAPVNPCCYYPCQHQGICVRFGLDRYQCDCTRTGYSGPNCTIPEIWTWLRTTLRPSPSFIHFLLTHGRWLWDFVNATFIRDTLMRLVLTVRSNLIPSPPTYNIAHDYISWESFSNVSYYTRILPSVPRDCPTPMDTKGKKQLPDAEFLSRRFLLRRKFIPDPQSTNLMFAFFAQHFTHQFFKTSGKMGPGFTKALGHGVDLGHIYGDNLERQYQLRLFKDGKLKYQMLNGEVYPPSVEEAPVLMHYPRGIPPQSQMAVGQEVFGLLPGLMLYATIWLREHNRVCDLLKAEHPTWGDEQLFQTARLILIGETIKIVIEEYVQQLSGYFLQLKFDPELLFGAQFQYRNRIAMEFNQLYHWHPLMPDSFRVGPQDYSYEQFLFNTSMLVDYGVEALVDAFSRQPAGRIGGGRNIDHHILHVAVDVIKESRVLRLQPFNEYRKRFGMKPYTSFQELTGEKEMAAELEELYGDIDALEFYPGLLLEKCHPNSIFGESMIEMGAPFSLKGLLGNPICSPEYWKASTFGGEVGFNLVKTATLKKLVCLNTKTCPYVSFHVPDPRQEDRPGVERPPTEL
Description: (§2) Newly synthesized compounds were evaluated for their ability to inhibit ovine COX-1 or human COX-2 enzyme by measuring the extent (%) of enzyme activity inhibition at different concentrations (0.001, 0.01, 0.1, 1, 10, 50 μM). […] The assay kit measures the peroxidase component of COXs that is assayed colorimetrically by monitoring the appearance of oxidized N,N,N′,N′-tetramethyl-p-phenylenediamine (TMPD) a λ = 590 nm. […] Stock solutions of test compounds were dissolved in DMSO.

human COX-2 = target: T2, human COX-2 (Homo sapiens, UniProt P35354); assay: Cyclooxygenase colorimetric inhibitor screening assay, COX-2; type: biochemical; conditions: read-out: hCOX-2; for IC50: human COX-2, colorimetric kit; for inhibition at 50 µM: human COX-2, 50 µM;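 for all read-outs here: peroxidase activity of COX-2 followed colorimetrically through formation of oxidized TMPD at 590 nm, with arachidonic acid as substrate, compounds tested from 0.001 to 50 µM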
T2 construct: purchased Cayman Chemicals 701050
T2 sequence (P35354 18-604): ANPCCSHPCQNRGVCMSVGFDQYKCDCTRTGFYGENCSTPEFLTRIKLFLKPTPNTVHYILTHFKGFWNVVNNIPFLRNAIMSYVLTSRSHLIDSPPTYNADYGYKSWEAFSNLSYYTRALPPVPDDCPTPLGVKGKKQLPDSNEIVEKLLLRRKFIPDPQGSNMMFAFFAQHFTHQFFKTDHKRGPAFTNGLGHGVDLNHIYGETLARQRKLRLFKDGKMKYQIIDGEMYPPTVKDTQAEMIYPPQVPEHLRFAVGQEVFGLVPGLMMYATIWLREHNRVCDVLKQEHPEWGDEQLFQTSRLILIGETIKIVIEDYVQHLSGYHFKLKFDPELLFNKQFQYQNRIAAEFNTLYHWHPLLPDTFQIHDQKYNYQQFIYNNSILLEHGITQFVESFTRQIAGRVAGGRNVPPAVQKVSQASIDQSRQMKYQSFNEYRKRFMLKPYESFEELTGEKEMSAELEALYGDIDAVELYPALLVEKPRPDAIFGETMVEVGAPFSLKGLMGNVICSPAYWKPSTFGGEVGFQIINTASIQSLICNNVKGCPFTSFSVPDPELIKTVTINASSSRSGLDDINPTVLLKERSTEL
Description: as §2

BV2 microglia cells [3] = assay: Nitrite release (Griess reaction) in LPS-treated BV2 microglia; type: cell-based; conditions: LPS 1 μg/mL, basal = 100
Source text: The COX-1 inhibition data prompted us to undertake further work on the activity of compounds 3 in a neuroinflammation situation. Once we had verified that the compounds studied were not toxic per se in microglia BV2 cells (see the data in Table S1), we measured the nitrites released to determine the efficacy of our compounds in reducing microglia activation. Nitric oxide is a potent mediator of the classic activated microglia phenotype (M1); in fact, the lack of nitrite release correlated with an anti-inflammatory microglia (M2) phenotype. Therefore, we evaluated the response of the BV2 microglia cells to a challenge of 1 μg/mL LPS. For this purpose, BV2 microglia cells were incubated with LPS, a well-known agonist of the toll-like receptor 4 (TLR4) that causes a neuroinflammatory response, in combination with increasing concentrations of our COX-1 inhibitors (1, 3, and 10 μM). […] Similar results were observed after 48 h of the LPS treatment.
as §1
The NO assay was performed using the previously reported protocols. Briefly, 100 μL of culture supernatants were mixed with the same volume of Griess assay regent (1% sulfanilamide (Sigma Aldrich, Madrid, Spain), 0.1% naphthylethylenediamine dihydrochloride, and 2.5% phosphoric acid). Ten minutes later, the 560-nm absorbance was measured.

[4] = test system: organotypic hippocampal cultures (OHCs); assay: Cell death (propidium iodide uptake, CA1) in organotypic hippocampal cultures treated with LPS; type: cell-based, Sprague-Dawley rats; conditions: LPS 1 μg/mL, 24 h
Description: With these promising data in hand, we selected compound 3b for its study in a more complex preparation. In vivo administration of LPS produces a proinflammatory cascade that causes memory deficits, an increase of inflammatory markers, and impairment of hippocampal glutamatergic transmission, contributing to neuronal death. All of these functional changes have been described to take place mainly in the hippocampus region. Thus, we subjected organotypic hippocampal cultures (OHCs) to LPS (1 μg/mL) to assess the protective effect of COX-1 inhibition. This kind of explant allows us to study the microglia-neuron network in a more complex and physiological model of cerebral insult.
OHCs were conducted on 8–10-day-old Sprague-Dawley rats supplied by the animal facilities of Universidad Autónoma de Madrid (Madrid, Spain). Cultures were prepared according to the methods described by Stoppini et al. with some modifications. […]
Cell death was determined in the CA1 region by staining the OHCs with propidium iodide (PI). Thirty minutes before analyzing fluorescence, slices were incubated with PI (1 µg/mL). Fluorescence was measured in an epifluorescence Olympus BX50WI microscope. […] Fluorescence was measured in each slice using ImageJ.

BV2 microglia cells [5] = assay: Nitrite release (Griess reaction) in LPS-treated BV2 microglia; type: cell-based; conditions: 100 nM, LPS 1 μg/mL, basal = 100

Nc1cc(-c2ccccc2)cc(-c2ccc(Cl)cc2)c1 [Compound 3c, 4-Chloro-5′-amino-m-terphenyl]
ROS production induced by LPS (BV2 microglia cells [1]; 3 μM): significantly reverted ROS production almost to basal levels | Reduction of the number of BV2 ramified cells (BV2 microglia cells [2]; 10 μM): 60% | inhibition at 50 µM (ovine COX-1): 100% | IC50 (ovine COX-1): 4.7 ± 3.04 µM | COX-1 selectivity (in words) (ovine COX-1; ovine COX-1 vs human COX-2): complete selectivity towards COX-1 | IC50 (human COX-2): > 50 µM | Nitrite Release after 24 h (BV2 microglia cells [3]; 1 μM): 135 ± 6% | Nitrite Release after 48 h (BV2 microglia cells [3]; 1 μM): 181 ± 9% | Nitrite Release after 24 h (BV2 microglia cells [3]; 3 μM): 117 ± 8% | Nitrite Release after 48 h (BV2 microglia cells [3]; 3 μM): 163 ± 5% | Nitrite Release after 24 h (BV2 microglia cells [3]; 10 μM): 110 ± 6 % | Nitrite Release after 48 h (BV2 microglia cells [3]; 10 μM): 138 ± 7%

COc1ccc(-n2nc(C(F)(F)F)cc2-c2ccc(Cl)cc2)cc1 [SC-560, reference compound]
Cell death (PI uptake in CA1) induced by LPS [4]: prevented | ROS production induced by LPS (BV2 microglia cells [1]; 100 nM): significantly reverted ROS production almost to basal levels | Nitrite Release after 24 h (BV2 microglia cells [5]; 24 h): 114 ± 9 % | Nitrite Release after 48 h (BV2 microglia cells [5]; 48 h): 135 ± 8 %

Nc1cc(-c2ccccc2)cc(-c2ccccc2)c1 [Compound 3a, 5′-Amino-m-terphenyl]
ROS production induced by LPS (BV2 microglia cells [1]; 3 μM): significantly reverted ROS production almost to basal levels | Reduction of the number of BV2 ramified cells (BV2 microglia cells [2]; 3 μM): 60% | inhibition at 50 µM (ovine COX-1): 86% | IC50 (ovine COX-1): 0.8 ± 0.39 µM | COX-1/COX-2 inhibition ratio (ovine COX-1; ovine COX-1 vs human COX-2): around 7 | inhibition at 50 µM (human COX-2): 70% | IC50 (human COX-2): 5.4 µM | Nitrite Release after 24 h (BV2 microglia cells [3]; 1 μM): 130 ± 14% | Nitrite Release after 48 h (BV2 microglia cells [3]; 1 μM): 145 ± 17% | Nitrite Release after 24 h (BV2 microglia cells [3]; 3 μM): 110 ± 7 % | Nitrite Release after 48 h (BV2 microglia cells [3]; 3 μM): 119 ± 10 % | Nitrite Release after 24 h (BV2 microglia cells [3]; 10 μM): 122 ± 10% | Nitrite Release after 48 h (BV2 microglia cells [3]; 10 μM): 120 ± 15 %

COc1ccc(-c2cc(N)cc(-c3ccccc3)c2)cc1 [Compound 3e, 4-Methoxy-5′-amino-m-terphenyl]
Reduction of the number of BV2 ramified cells (BV2 microglia cells [2]; 3 μM): 60% | inhibition at 50 µM (ovine COX-1): 73% | IC50 (ovine COX-1): 0.9 ± 0.76 µM | inhibition at 50 µM (human COX-2): 8% | Nitrite Release after 24 h (BV2 microglia cells [3]; 1 μM): 124 ± 9% | Nitrite Release after 48 h (BV2 microglia cells [3]; 1 μM): 144 ± 15% | Nitrite Release after 24 h (BV2 microglia cells [3]; 3 μM): 110 ± 6 % | Nitrite Release after 48 h (BV2 microglia cells [3]; 3 μM): 133 ± 13 % | Nitrite Release after 24 h (BV2 microglia cells [3]; 10 μM): 103 ± 9 % | Nitrite Release after 48 h (BV2 microglia cells [3]; 10 μM): 131 ± 13 %
